Reference: patent publication US20100298141A1, “SUBSTITUTED PYRIDINE N-OXIDE HERBICIDES” (E. I. DU PONT DE NEMOURS AND COMPANY, priority 2007, published 2010)

Key:
Test in all cases: Test F preemergence test
pitted morningglory = type: in vivo, Ipomoea lacunosa; conditions: scale 0 to 100
Procedure, shortened: (§1)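 Greenhouse screen: test chemical in surfactant-containing non-phytotoxic solvent applied preemergence to sown seeds or postemergence to sugarcane plants; after 14 to 21 days each species scored visually versus controls.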

guineagrass = type: in vivo, Panicum maximum; conditions: scale 0 to 100
Procedure, shortened: as §1

barnyardgrass = type: in vivo, Echinochloa crus-galli
Procedure, shortened: as §1

Virginia dayflower = type: in vivo, Commelina virginica; conditions: scale 0 to 100
Procedure, shortened: as §1

prickly sida = type: in vivo, Sida spinosa; conditions: scale 0 to 100
Procedure, shortened: as §1

common mallow = type: in vivo, Malva sylvestris; conditions: scale 0 to 100
Procedure, shortened: as §1

dallisgrass = type: in vivo, Paspalum dilatatum; conditions: scale 0 to 100
Procedure, shortened: as §1

bermudagrass = type: in vivo, Cynodon dactylon; conditions: scale 0 to 100
Procedure, shortened: as §1

annual bluegrass = type: in vivo, Poa annua; conditions: scale 0 to 100
Procedure, shortened: as §1

common groundsel = type: in vivo, Senecio vulgaris; conditions: scale 0 to 100
Procedure, shortened: as §1

common chickweed = type: in vivo, Stellaria media; conditions: scale 0 to 100
Procedure, shortened: as §1

naked crabgrass = type: in vivo, Digitaria nuda; conditions: scale 0 to 100
Procedure, shortened: as §1

quackgrass = type: in vivo, Elytrigia repens; conditions: scale 0 to 100
Procedure, shortened: as §1

broadleaf signalgrass = type: in vivo, Brachiaria platyphylla; conditions: scale 0 to 100
Procedure, shortened: as §1

mustard = type: in vivo, Brassica nigra; conditions: scale 0 to 100
Procedure, shortened: as §1

kochia = type: in vivo, Kochia scoparia; conditions: scale 0 to 100
Procedure, shortened: as §1

Canada horseweed = type: in vivo, Conyza canadensis; conditions: scale 0 to 100
Procedure, shortened: as §1

purple nutsedge = type: in vivo, Cyperus rotundus; conditions: scale 0 to 100
Procedure, shortened: as §1

common purslane = type: in vivo, Portulaca oleracea; conditions: scale 0 to 100
Procedure, shortened: as §1

`CCn1nc(C(F)(F)F)c(C[S+]([O-])c2cc(C)cc[n+]2[O-])c1OCC(F)(F)F` (racemic) [Compound 66] was tested, and the “Plant response rating, Morningglory” value (pitted morningglory; 16 g ai/ha, preemergence) was 0, the “Morningglory plant response rating” value (pitted morningglory; 62 g ai/ha, Preemergence) was 80 and the “Morningglory plant response rating” value (pitted morningglory; 125 g ai/ha, preemergence) was 100. For the same compound, the “Plant response rating, Morningglory” value (pitted morningglory; Preemergence, 31 g ai/ha) was 65, the “Plant response rating, Guineagrass” value (guineagrass; 16 g ai/ha, preemergence) was 20 and the “Guineagrass plant response rating” value (guineagrass; 62 g ai/ha, Preemergence) was 100. For the same compound, the “Guineagrass plant response rating” value (guineagrass; 125 g ai/ha, preemergence) was 100, the “Plant response rating, Guineagrass” value (guineagrass; Preemergence, 31 g ai/ha) was 80 and the “Plant response rating, Barnyardgrass” value (barnyardgrass; 16 g ai/ha, preemergence, scale 0 to 100 (0 no effect, 100 complete control)) was 30. The “Barnyardgrass plant response rating” value (barnyardgrass; 62 g ai/ha, Preemergence, scale 0 to 100) was 100, the “Barnyardgrass plant response rating” value (barnyardgrass; 125 g ai/ha, preemergence, scale 0 to 100) was 100 and the “Plant response rating, Barnyardgrass” value (barnyardgrass; Preemergence, 31 g ai/ha, scale 0 to 100) was 75. For the same compound, the “Plant response rating, Dayflower” value (Virginia dayflower; 16 g ai/ha, preemergence) was 0, the “Plant response rating, Dayflower” value (Virginia dayflower; Preemergence, 31 g ai/ha) was 0 and the “Plant response rating, Prickly Sida” value (prickly sida; 16 g ai/ha, preemergence) was 20. The “Prickly Sida plant response rating” value (prickly sida; 62 g ai/ha, Preemergence) was 75, the “Prickly Sida plant response rating” value (prickly sida; 125 g ai/ha, preemergence) was 98 and the “Plant response rating, Prickly Sida” value (prickly sida; Preemergence, 31 g ai/ha) was 20. For the same compound, the “Plant response rating, Mallow” value (common mallow; 16 g ai/ha, preemergence) was 0, the “Mallow plant response rating” value (common mallow; 62 g ai/ha, Preemergence) was 80 and the “Mallow plant response rating” value (common mallow; 125 g ai/ha, preemergence) was 100. The “Plant response rating, Mallow” value (common mallow; Preemergence, 31 g ai/ha) was 70, the “Plant response rating, Dallisgrass” value (dallisgrass; 16 g ai/ha, preemergence) was 0 and the “Dallisgrass plant response rating” value (dallisgrass; 62 g ai/ha, Preemergence) was 95. The “Dallisgrass plant response rating” value (dallisgrass; 125 g ai/ha, preemergence) was 100, the “Plant response rating, Dallisgrass” value (dallisgrass; Preemergence, 31 g ai/ha) was 65 and the “Plant response rating, Bermudagrass” value (bermudagrass; 16 g ai/ha, preemergence) was 40. For the same compound, the “Bermudagrass plant response rating” value (bermudagrass; 62 g ai/ha, Preemergence) was 75, the “Bermudagrass plant response rating” value (bermudagrass; 125 g ai/ha, preemergence) was 98 and the “Plant response rating, Bermudagrass” value (bermudagrass; Preemergence, 31 g ai/ha) was 60. For the same compound, the “Plant response rating, Bluegrass” value (annual bluegrass; 16 g ai/ha, preemergence) was 0, the “Bluegrass plant response rating” value (annual bluegrass; 62 g ai/ha, Preemergence) was 70 and the “Bluegrass plant response rating” value (annual bluegrass; 125 g ai/ha, preemergence) was 80. For the same compound, the “Plant response rating, Bluegrass” value (annual bluegrass; Preemergence, 31 g ai/ha) was 20, the “Groundsel plant response rating” value (common groundsel; 62 g ai/ha, Preemergence) was 80 and the “Groundsel plant response rating” value (common groundsel; 125 g ai/ha, preemergence) was 100. The “Plant response rating, Groundsel” value (common groundsel; Preemergence, 31 g ai/ha) was 20, the “Plant response rating, Chickweed” value (common chickweed; 16 g ai/ha, preemergence) was 100 and the “Chickweed plant response rating” value (common chickweed; 62 g ai/ha, Preemergence) was 100. For the same compound, the “Chickweed plant response rating” value (common chickweed; 125 g ai/ha, preemergence) was 100, the “Plant response rating, Chickweed” value (common chickweed; Preemergence, 31 g ai/ha) was 100 and the “Plant response rating, Crabgrass, Naked” value (naked crabgrass; 16 g ai/ha, preemergence) was 0. The “Crabgrass, Naked plant response rating” value (naked crabgrass; 62 g ai/ha, Preemergence) was 100, the “Crabgrass, Naked plant response rating” value (naked crabgrass; 125 g ai/ha, preemergence) was 100 and the “Plant response rating, Crabgrass, Naked” value (naked crabgrass; Preemergence, 31 g ai/ha) was 25. The “Plant response rating, Quackgrass” value (quackgrass; 16 g ai/ha, preemergence) was 70, the “Quackgrass plant response rating” value (quackgrass; 62 g ai/ha, Preemergence) was 85 and the “Quackgrass plant response rating” value (quackgrass; 125 g ai/ha, preemergence) was 100. The “Plant response rating, Quackgrass” value (quackgrass; Preemergence, 31 g ai/ha) was 75, the “Plant response rating, Signalgrass” value (broadleaf signalgrass; 16 g ai/ha, preemergence) was 30 and the “Signalgrass plant response rating” value (broadleaf signalgrass; 125 g ai/ha, preemergence) was 95. The “Plant response rating, Signalgrass” value (broadleaf signalgrass; Preemergence, 62 g ai/ha) was 65, the “Plant response rating, Signalgrass” value (broadleaf signalgrass; Preemergence, 31 g ai/ha) was 30 and the “Plant response rating, Black Mustard” value (mustard; 16 g ai/ha, preemergence) was 50. The “Black Mustard plant response rating” value (mustard; 62 g ai/ha, Preemergence) was 100, the “Black Mustard plant response rating” value (mustard; 125 g ai/ha, preemergence) was 100 and the “Plant response rating, Black Mustard” value (mustard; Preemergence, 31 g ai/ha) was 65. The “Plant response rating, Kochia” value (kochia; 16 g ai/ha, preemergence) was 0, the “Kochia plant response rating” value (kochia; 62 g ai/ha, Preemergence) was 15 and the “Kochia plant response rating” value (kochia; 125 g ai/ha, preemergence) was 90. The “Plant response rating, Kochia” value (kochia; Preemergence, 31 g ai/ha) was 0, the “Plant response rating, Horseweed” value (Canada horseweed; 16 g ai/ha, preemergence) was 50 and the “Horseweed plant response rating” value (Canada horseweed; 62 g ai/ha, Preemergence) was 90. For the same compound, the “Horseweed plant response rating” value (Canada horseweed; 125 g ai/ha, preemergence) was 100, the “Plant response rating, Horseweed” value (Canada horseweed; Preemergence, 31 g ai/ha) was 50 and the “Plant response rating, Purple Nutsedge” value (purple nutsedge; 16 g ai/ha, preemergence) was 25. The “Purple Nutsedge plant response rating” value (purple nutsedge; 62 g ai/ha, Preemergence) was 60, the “Purple Nutsedge plant response rating” value (purple nutsedge; 125 g ai/ha, preemergence) was 100 and the “Plant response rating, Purple Nutsedge” value (purple nutsedge; Preemergence, 31 g ai/ha) was 40. For the same compound, the “Plant response rating, Purslane” value (common purslane; 16 g ai/ha, preemergence) was 0, the “Purslane plant response rating” value (common purslane; 62 g ai/ha, Preemergence) was 50 and the “Purslane plant response rating” value (common purslane; 125 g ai/ha, preemergence) was 60. For the same compound, the “Plant response rating, Purslane” value (common purslane; Preemergence, 31 g ai/ha) was 0.
